# Assay results published in patent publication US11980609B2, “LPA receptor antagonists and uses thereof” (Gilead Sciences, Inc., priority 2021, dated 2024).
# Biological target: T1, human LPAR1 (Homo sapiens, UniProt Q92633)
# T1 construct: host or cells: CHO-K1
# Assay: LPAR1 intracellular calcium mobilization assay (antagonist mode)
# Assay type: cell-based
# Conditions: CHO-K1 EDG2 cells expressing human LPAR1; 60 min pre-incubation with compound (0.5 nM to 10 μM), then LPA 18:2 challenge; FLIPR Tetra calcium signal
# Procedure: In vitro LPAR1 activity was measured in an intracellular calcium mobilization assay.
# CHO-K1 EDG2 cells (DiscoverX cat #93-0644C2) expressing human LPAR1 (NM_001401.3) were seeded in a total volume of 25 μL of Dulbecco's Modification of Eagle's Medium (DMEM) with 10% Fetal Bovine Serum, 1× PenStrepGlutamine, 300 μg/ml Hygromycin, and 800 μg/ml G418 into 384-well tissue culture plate (Grenier #781091) at 15,000 cells/well and incubated at 37° C. overnight. Prior to testing, 25 μL Calcium Loading Dye Component A (FLIPR Calcium 6 Assay Kit Molecular Device #R8190) and 2.5 mM Probenecid (Invitrogen #P36400, prepared fresh) in Hank's Balanced Salt Solution (Corning #21-023-CV), 20 mM HEPES (Corning #25-060-CI), 0.1% Bovine Serum Albumin (Sigma-Aldrich #A7906-500G) was add to the cells for 60 minutes at 37° C.
# Agonist dose curves of LPA 18:2 (Avanti Polar Lipids cat #857138, 0.5 nM to 10 μM) were recorded to determine the LPA 18:2 EC80 for subsequent antagonist assays. For agonist dose curves, cells were removed from the incubator 2 hours after dye loading and transferred to the FLIPR Tetra instrument (Molecular Devices, San Jose, CA). Calcium mobilization was monitored for 5 min and 10 μL 6×LPA in HBSS/20 mM Hepes/0.1% bovine serum albumin (BSA) was added to the cells 5 seconds into the assay.
# To determine the LPAR1 antagonist activity of test compounds, cells were pre-incubated with test compound at a dose range of 0.5 nM to 10 μM, followed by LPA at […] concentration (100 nM). After dye loading, cells were removed from the incubator and 0.3 μL of 200× antagonist was added. Cells were incubated for 60 minutes at 37° C. Antagonist activity was measured on a FLIPR Tetra. Calcium mobilization was monitored for 3.5 minutes and 10 μL 6×EC80 LPA in HBSS, 20 mM HEPES, and 0.1% BSA was added to the cells 5 seconds into the assay. Signal amplitude (Maximum minus minimum) values were plotted against log10 of antagonist concentration using Dose Response Tool (Gilead Sciences Inc.) to determine EC50.
# To assess the antagonistic potential of exemplified compounds EC50 values were determined for Compounds 1 to 55 in the LPAR1 calcium mobilization assay. The compound numbers correspond to the compound numbers in Examples 1 to 35. N/A=not available.
# T1 sequence (Q92633 whole entry): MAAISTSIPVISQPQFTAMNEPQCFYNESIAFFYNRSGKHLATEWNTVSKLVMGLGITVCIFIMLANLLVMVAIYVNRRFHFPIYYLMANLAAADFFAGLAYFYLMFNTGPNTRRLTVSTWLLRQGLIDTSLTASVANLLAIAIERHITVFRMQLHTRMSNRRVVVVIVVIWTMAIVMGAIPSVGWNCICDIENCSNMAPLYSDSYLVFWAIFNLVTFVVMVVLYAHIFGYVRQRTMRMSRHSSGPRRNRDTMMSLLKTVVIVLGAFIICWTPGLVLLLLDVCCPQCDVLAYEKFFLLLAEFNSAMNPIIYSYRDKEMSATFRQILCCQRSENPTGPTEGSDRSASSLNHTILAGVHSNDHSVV
row,SMILES,EC50 [nM]
1,"C[C@@H](OC(=O)Nc1c(-c2ncc(OC(F)F)cn2)cnn1C)c1cc(F)cnc1F [Compound 55, (R)-1-(2,5-difluoropyridin-3-yl)ethyl (4-(5-(difluoromethoxy)pyrimidin-2-yl)-1-methyl-1H-pyrazol-5-yl)carbamate]",1780
2,"C[C@@H](OC(=O)Nc1c(-c2ncc(NC(=O)C3(C(F)F)CC(F)(F)C3)cn2)cnn1C)c1cc(F)cnc1F [Compound 37, (R)-1-(2,5-difluoropyridin-3-yl)ethyl (4-(5-(1-(difluoromethyl)-3,3-difluorocyclobutane-1-carboxamido)pyrimidin-2-yl)-1-methyl-1H-pyrazol-5-yl)carbamate]",7.9
3,"C[C@@H](OC(=O)Nc1c(-c2ncc(NC(=O)C3CC(F)(F)C3)cn2)cnn1C)c1cc(F)cnc1F [Compound 36, (R)-1-(2,5-difluoropyridin-3-yl)ethyl (4-(5-(3,3-difluorocyclobutane-1-carboxamido)pyrimidin-2-yl)-1-methyl-1H-pyrazol-5-yl)carbamate]",18.6
4,"C[C@@H](OC(=O)Nc1c(-c2ncc(NC(=O)C3(C(F)F)CC3)cn2)cnn1C)c1cc(F)cnc1F [Compound 28, (R)-1-(2,5-difluoropyridin-3-yl)ethyl (4-(5-(1-(difluoromethyl)cyclopropane-1-carboxamido)pyrimidin-2-yl)-1-methyl-1H-pyrazol-5-yl)carbamate]",216
5,"CCS(=O)(=O)Oc1cnc(-c2cnn(C)c2NC(=O)O[C@H](C)c2cc(F)cnc2Cl)nc1 [Compound 5, (R)-2-(5-(((1-(2-chloro-5-fluoropyridin-3-yl)ethoxy)carbonyl)amino)-1-methyl-1H-pyrazol-4-yl)pyrimidin-5-yl ethanesulfonate]",51.5
6,"C[C@@H](OC(=O)Nc1c(-c2ncc(NC(=O)[C@@H]3C[C@H]3c3cccnc3)cn2)cnn1C)c1cc(F)cnc1F [Compound 33, (R)-1-(2,5-difluoropyridin-3-yl)ethyl (1-methyl-4-(5-((1R,2R)-2-(pyridin-3-yl)cyclopropane-1-carboxamido)pyrimidin-2-yl)-1H-pyrazol-5-yl)carbamate]",20.3
7,"C[C@@H](OC(=O)Nc1c(-c2ncc(NC(=O)[C@@H]3C[C@H]3C(F)(F)F)cn2)cnn1C)c1cccnc1F [Compound 40, (R)-1-(2-fluoropyridin-3-yl)ethyl (1-methyl-4-(5-((1R,2R)-2-(trifluoromethyl)cyclopropane-1-carboxamido)pyrimidin-2-yl)-1H-pyrazol-5-yl)carbamate]",< 4.6
8,"C[C@@H](OC(=O)Nc1c(-c2ncc(NC(=O)C3(C#N)CC3)cc2F)cnn1C)c1cc(F)cnc1F [Compound 17, (R)-1-(2,5-difluoropyridin-3-yl)ethyl (4-(5-(1-cyanocyclopropane-1-carboxamido)-3-fluoropyridin-2-yl)-1-methyl-1H-pyrazol-5-yl)carbamate]",19.7
9,"C[C@@H](OC(=O)Nc1c(-c2ncc(NC(=O)[C@]3(C)C[C@@H](C#N)C3)cn2)cnn1C)c1cc(F)cnc1F [Compound 38, (R)-1-(2,5-difluoropyridin-3-yl)ethyl (4-(5-((1r,3R)-3-cyano-1-methylcyclobutane-1-carboxamido)pyrimidin-2-yl)-1-methyl-1H-pyrazol-5-yl)carbamate]",52.7
10,"C[C@@H](OC(=O)Nc1c(-c2ncc(C(F)F)cn2)cnn1C)c1cc(F)cnc1F [Compound 54, (R)-1-(2,5-difluoropyridin-3-yl)ethyl (4-(5-(difluoromethyl)pyrimidin-2-yl)-1-methyl-1H-pyrazol-5-yl)carbamate]",2880
11,"C[C@@H](OC(=O)Nc1c(-c2ncc(NC(=O)c3cnc(C(F)F)nc3)cc2F)cnn1C)c1cc(F)cnc1F [Compound 18, (R)-1-(2,5-difluoropyridin-3-yl)ethyl (4-(5-(2-(difluoromethyl)pyrimidine-5-carboxamido)-3-fluoropyridin-2-yl)-1-methyl-1H-pyrazol-5-yl)carbamate]",36.1
12,"C[C@@H](OC(=O)Nc1c(-c2ncc(NC(=O)c3ccc(C(F)(F)F)nc3)cn2)cnn1C)c1cc(F)cnc1F [Compound 27, (R)-1-(2,5-difluoropyridin-3-yl)ethyl (1-methyl-4-(5-(6-(trifluoromethyl)nicotinamido)pyrimidin-2-yl)-1H-pyrazol-5-yl)carbamate]",28
13,"C[C@@H](OC(=O)Nc1c(-c2ncc(NC(=O)C3(C#N)CC3)cn2)cnn1C)c1cccnc1F [Compound 42, (R)-1-(2-fluoropyridin-3-yl)ethyl (4-(5-(1-cyanocyclopropane-1-carboxamido)pyrimidin-2-yl)-1-methyl-1H-pyrazol-5-yl)carbamate]",54.9
14,"C[C@@H](OC(=O)Nc1c(-c2ncc(O)cn2)cnn1C)c1cccnc1Cl [Compound 44, (R)-1-(2-chloropyridin-3-yl)ethyl (4-(5-hydroxypyrimidin-2-yl)-1-methyl-1H-pyrazol-5-yl)carbamate]",120
15,"C[C@@H](OC(=O)Nc1c(-c2ncc(C(=O)NC34CC(F)(C3)C4)cn2)cnn1C)c1cc(F)cnc1F [Compound 47, (R)-1-(2,5-difluoropyridin-3-yl)ethyl (4-(5-((3-fluorobicyclo[1.1.1]pentan-1-yl)carbamoyl)pyrimidin-2-yl)-1-methyl-1H-pyrazol-5-yl)carbamate]",799
16,"C[C@@H](OC(=O)Nc1c(-c2ncc(OS(C)(=O)=O)cn2)cnn1C)c1cc(F)cnc1Cl [Compound 6, (R)-2-(5-(((1-(2-chloro-5-fluoropyridin-3-yl)ethoxy)carbonyl)amino)-1-methyl-1H-pyrazol-4-yl)pyrimidin-5-yl methanesulfonate]",14.1

# The remaining lines, values ahead:
row,EC50 [nM],SMILES
1,11.7,"C[C@@H](OC(=O)Nc1c(-c2ccc(NS(C)(=O)=O)cc2)cnn1C)c1ccccc1Cl [Compound 1, (R)-1-(2-chlorophenyl)ethyl (1-methyl-4-(4-(methylsulfonamido)phenyl)-1H-pyrazol-5-yl)carbamate]"
2,869,C[C@@H](OC(=O)Nc1c(-c2ccc(C(=O)NC34CC(F)(C3)C4)cn2)cnn1C)c1cccnc1Cl [Compound 50]
3,4180,"COC(=O)Nc1ccc(-c2cnn(C)c2NC(=O)O[C@H](C)c2cccc(F)c2)nc1C [Compound 14, (R)-1-(3-fluorophenyl)ethyl (4-(5-((methoxycarbonyl)amino)-6-methylpyridin-2-yl)-1-methyl-1H-pyrazol-5-yl)carbamate]"
4,167,"Cc1nc(-c2cnn(C)c2NC(=O)O[C@H](C)c2cccnc2Cl)ncc1O [Compound 4, (R)-1-(2-chloropyridin-3-yl)ethyl (4-(5-hydroxy-4-methylpyrimidin-2-yl)-1-methyl-1H-pyrazol-5-yl)carbamate]"
5,216,"C[C@@H](OC(=O)Nc1c(-c2ccc(NS(C)(=O)=O)cn2)cnn1C)c1cccnc1Cl [Compound 20, (R)-1-(2-chloropyridin-3-yl)ethyl (1-methyl-4-(5-(methylsulfonamido)pyridin-2-yl)-1H-pyrazol-5-yl)carbamate]"
6,56.8,"C[C@@H](OC(=O)Nc1c(-c2ncc(O)cc2F)cnn1C)c1cccnc1Cl [Compound 10, (R)-1-(2-chloropyridin-3-yl)ethyl (4-(3-fluoro-5-hydroxypyridin-2-yl)-1-methyl-1H-pyrazol-5-yl)carbamate]"
7,39.6,"Cc1nc(-c2cnn(C)c2NC(=O)O[C@H](C)c2cccnc2Cl)ncc1OS(C)(=O)=O [Compound 3, (R)-2-(5-(((1-(2-chloropyridin-3-yl)ethoxy)carbonyl)amino)-1-methyl-1H-pyrazol-4-yl)-4-methylpyrimidin-5-yl methanesulfonate]"
8,1250,"Cc1nc(-c2cnn(C)c2NC(=O)O[C@H](C)c2cccc(F)c2)ccc1NS(C)(=O)=O [Compound 13, (R)-1-(3-fluorophenyl)ethyl (1-methyl-4-(6-methyl-5-(methylsulfonamido)pyridin-2-yl)-1H-pyrazol-5-yl)carbamate]"
9,36.4,"C[C@@H](OC(=O)Nc1c(-c2ncc(NS(C)(=O)=O)cn2)cnn1C)c1ccccc1F [Compound 51, (R)-1-(2-fluorophenyl)ethyl (1-methyl-4-(5-(methylsulfonamido)pyrimidin-2-yl)-1H-pyrazol-5-yl)carbamate]"
10,1860,C[C@@H](OC(=O)Nc1c(-c2ccc(C(=O)NC34CC(C#N)(C3)C4)cn2)cnn1C)c1cccc(F)c1 [Compound 49]
11,523,"C[C@@H](OC(=O)Nc1c(-c2ncc(OS(C)(=O)=O)cn2)cnn1C)c1cccnc1F [Compound 8, (R)-2-(5-(((1-(2-fluoropyridin-3-yl)ethoxy)carbonyl)amino)-1-methyl-1H-pyrazol-4-yl)pyrimidin-5-yl methanesulfonate]"
